pIC50: −log10 of the molar value.
Experiments:
HSP90α = HSP90α (Homo sapiens, UniProt P07900); experiment: HSP90α Binding Fluorescent Polarization (FP) Assay
Outline: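 Competitive FP assay in which compound displaces FITC-geldanamycin from recombinant HSP90α (28 μg/ml before addition) in BSA-containing buffer. Compounds in 3-fold series from 40 μM to 2.0 nM (dilution-plate concentrations), tested in duplicate. Readings after 30, 60 and 120 min at 25 °C; background-subtracted mP fitted to four-parameter log[inhibitor]-response curve.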

BRD4 = molecular target: T1, BRD4 (Homo sapiens, UniProt O60885); experiment: BRD4 Western Blotting in MV4-11 cells; format: cell-based
T1 construct: endogenous in cells; host or cells: MV4-11
Description: Cells were then collected by centrifugation, washed one time with cold PBS, supernatants aspirated and cell pellets lysed with 4° C. RIPA lysis buffer containing a protease/phosphatase inhibitor cocktail. The total protein concentrations of cell lysates were determined by BCA Protein Assay kit. Samples were normalized for equivalent protein concentrations, 5× loading buffer added and heated to 100° C. for 10 min and cooled to room temperature. 20 μl of each sample/well was loaded on a SDS-PAGE gel and electrophoresed for 20 min at 80 V, then 120 V for 1.5 hr. Gels were then electroblotted to nitrocellulose membranes using a wet-transfer method at 250 mA for 2.5 hr. Membranes were incubated with blocking buffer for 1 hr and washed 3 times with TBST for 5 min. Then membranes were incubated with anti-BRD4 (Cell Signaling Technology, #13440) and anti-beta-Actin (Cell Signaling Technology, #3700) antibodies diluted in blocking buffer per the manufacturer's recommendation at 4° C. overnight. After washing 3 times, blots were incubated with the appropriate labeled secondary antibody for 1 hr at room temperature and washed again. Images were read on a LI-COR and the optical density values of bands determined by ImageJ software. Data was analyzed using GraphPad Prism 7.0.

MV4-11 cells = experiment: MV4-11 Cell Cytotoxicity Assay; format: cell-based, human; conditions: 72 hr, CCK-8
Source text: % Inhibition=100−(D−B)/(S−B)*100%.
S: The absorbance of the maximum (cells with DMSO)
B: The absorbance of the minimum (medium with DMSO)

SU-DHL-4 xenograft = experiment: SU-DHL-4 DLBCL tumor xenograft study in mice
Description: Tumor Xenograft Studies in Mice
5×10^6 MV-4-11 or 1×10^7 SU-DHL-4 cells were collected and re-suspended in 0.1 mL of serum-free media with Matrigel (1:1 v/v) per mouse for subcutaneous inoculation in isoflurane anesthetized male BALB/c nude or C.B-17 scid mice, respectively (treated in accordance with AAALAC animal welfare guidelines). When the average tumor volumes reached 100-200 mm^3, tumor volume outliers were removed and the remaining animals randomly divided into groups of 6-8 with similar average tumor volumes in each group. […] Animals were intravenously dosed at 25 mg/kg, 50 mg/kg or 100 mg/kg 1×/week for 3 or 4 weeks. The appearance and behavior of each mouse was observed and recorded daily. Body weights and tumor volumes were measured and recorded every 2-4 days and the results were expressed as group means±SEM. Pairwise statistical comparisons between groups were performed by one-way ANOVA, and p<0.05 was considered statistically significant.

[1] = tested on: HSP90 client proteins (ERBB2, IGF1R, EGFR, RAF1); experiment: HSP90 Client Protein Degradation Flow Cytometry Assay, all clients together; format: cell-based, human; conditions: versus 59 nM for BRD4 degradation by western blotting in MV4-11 cells
Description: MV4-11 cells were plated in a 24-well tissue culture plate at a density of 350,000 cells/450 μL/well and incubated in 37° C./5% CO2 for 1 hr. Cells were then treated with compounds at various concentrations and incubated in 37° C./5% CO2 for 24 hr. Cells were harvested, washed once, counted and 200 μL of 1% paraformaldehyde/PBS was added and incubated for 15 min at room temperature. 200 μL of 1×PBS/0.4% Triton X-100 was added and incubated for 15 min at 4° C. Cells were washed three times and resuspended in 50 μL of 1×PBS/0.2% Triton X-100. 2 μL/10^6 cells of anti-BRD4 antibody (ABCAM, #128874) was added and mixed by pipetting up and down. Cells were incubated for 30 min at room temperature in the dark, washed three times and resuspended in 50 μL of 1×PBS/0.2% Triton X-100. Goat anti-rabbit IgG H&L antibody (1:2000 dilution) was added and mixed by pipetting up and down and incubated for 30 min at room temperature in the dark. Finally, cells were washed three times and resuspended in 200 μL of PBS for flow cytometric analysis.
Similar flow cytometry experiments for ERBB2 in BT-474 human breast carcinoma cells (ATCC, #HTB-20) and IGF1R, EGFR and RAF1 in HEK-293 human embryonic kidney (ATCC, #CRL-1573) were performed using anti-ERBB2 (R&D, #FAB1129P), anti-IGF1R (Cell Signaling Technology, #9750), anti-EGFR (Cell Signaling Technology, #139690) and anti-RAF1 (ABCAM, #ab181115) antibodies. […]

[2] = 100 mg/kg intravenously 1×/week, after 4 weeks of dosing

## Cc1sc2c(c1C)C(c1ccc(Cl)cc1)=N[C@@H](CC(=O)N1CCC(CN3CCN(Cc4ccc(-n5c(O)nnc5-c5cc(C(C)C)c(O)cc5O)cc4)CC3)CC1)c1nnc(C)n1-2.Cl [Compound 74, (S)-2-(4-(4-chlorophenyl)-2,3,9-trimethyl-6H-thieno[3,2-f][1,2,4]triazolo[4,3-a][1,4]diazepin-6-yl)-1-(4-((4-(4-(3-(2,4-dihydroxy-5-isopropylphenyl)-5-hydroxy-4H-1,2,4-triazol-4-yl)benzyl)piperazin-1-yl)methyl)piperidin-1-yl)ethan-1-one hydrochloride]
HSP90α
  potency in binding to HSP90, in words: moderate potency
HSP90α; competition with FITC-geldanamycin, read-out: HSP90 Binding Potency
  pIC50: 6.00 to 7.00
BRD4; MV4-11 cells treated with both compound 074 and bortezomib
  BRD4 degradation by western blotting with proteasome inhibitor bortezomib: BRD4 degradation was blocked
BRD4; MV4-11 cells, 24 hr, 100 and 300 nM
  BRD4 degradation by western blotting: BRD4 degradation was observed
BRD4; MV4-11 cells, read-out: IC50 value for BRD4 degradation determined by western blotting
  DC50: 59 nM
MV4-11 cells
  pIC50: > 7.00
SU-DHL-4 xenograft; [2]
  tumor growth inhibition: significant tumor growth inhibition
  tumor vs control (T/C) value: 41%
SU-DHL-4 xenograft; any dose level
  animal deaths and body weights: No animal deaths or significant effects on body weights were observed
[1]
  IC50 for HSP90 clients higher than the IC50 value for BRD4 degradation: 6- to 18 fold

— patent US20220168427A1 (Ranok Therapeutics (Hangzhou) Co. Ltd., priority 2019, published 2022)
